From patent US8481521B2, “Methods of treating cell proliferative disorders” (Rigel Pharmaceuticals, Inc., priority 2005, dated 2013)
“Also recorded” adds a separate entry of the source.

Experiments:
[1] = system: phosphorylated histone H3 (phH3); assay: Phosphorylated histone H3 immunohistochemistry of MV4-11 tumor xenografts; assay type: in vivo, human; details: vs vehicle treated MV4-11 xenografts
Description: Proliferation was assessed ex vivo in formalin fixed tumor sections from three randomly selected mice from this study using immunohistochemical staining of human-specific phosphorylated histone H3 (phH3) as a marker for tumor cell proliferation. Human phH3 expression was reduced in tumor sections in a dose-dependent manner following treatment with VII.

[2] = Stability of prodrug in rat plasma; assay type: in vitro ADME
Description: (§1) Although phosphate-containing prodrugs suitable for oral administration are of interest, skilled artisans will appreciate that prodrugs including phosphate-containing progroups R^P can be administered via other routes of administration, as phosphatases are distributed throughout the body. […] Thus, the only requirement is that the particular phosphate-containing progroup R^P selected should be removable under the conditions of intended use.
The presence of Phosphatase activity in rat plasma was confirmed using p-nitrophenyl phosphate—a known substrate for phosphatase.

[3] = system: Flt-3; assay: Flt-3 phosphorylation in MV4-11 tumor lysates (immunoprecipitation, Western blot); assay type: in vivo, human; details: 40 mg/kg VII, about two hours after final dose, vs vehicle
Description: Panel A is detection of phosphorylated Flt-3 in MV4-11 tumor lysates from mice approximately two hours after the final dose of VII or vehicle using anti-phosphotyrosine antibody on the left and anti-phospho-Flt-3 specific antibody on the right side of the blot. Additionally, a reprobe of the blot for the total Flt-3 levels are shown in Panel B.
Western blot analysis of phosphorylated Flt-3 was carried out as follows.
3. Weigh and normalize in 250 mg/l ml ice-cold RIPA buffer (Santa Cruz Biotechnology, sc-24948) containing protease inhibitor and phosphotase inhibitor cocktail (Sigma, P5726, 1 ml/100 ml lysis buffer).
Immunoprecipitation. • 1. Take 1 mg tumor lysate and add primary antibody 2 ug (Anti-Flt-3 S18, Santa Cruz, #sc-480) adjust volume to 500 ul with lysis buffer. Incubate with gentle rocking for 1 h at 4° C. • 2. Add protein A/G plus-agarose beads (Santa Cruz, SC-2003) 40 ul. Incubate with gentle rocking for 1 h at RT. • 3. Microcentrifuge for 30 second at 4° C. Wash pellet three times with 500 ul of 1× lysis buffer. Keep on ice during washes. • 4. Resuspend the pellet with 30 ul 2× Tris-Glysine SDS loading buffer+5 ul reducing agent 10× (Invitrogen). • 5. Heat the sample to 95-100° C. for 5 minutes. • 6. Store the sample at −80° C.
Western Blot Procedure. • 1. Load 20 ul of the sample on 8% Tris-Glysine gel. • 2. Run in 1× Tris-glysine SDS running buffer. • 3. […]

[4] = system: pErk1/2 and pStat5; assay: Immunohistochemical staining for pErk1/2 and pStat5 in MV4-11 tumor sections; assay type: in vivo; details: 40 mg/kg VII, 26 days
Description: Tumors were harvested from mice ˜2 hours following final dose of vehicle or 40 mg/kg VII.

[5] = Conversion of prodrug to drug in microsome preparations; assay type: in vitro ADME, rat
Description: as §1

Compound: COc1cc(Nc2ncc(F)c(Nc3ccc4c(n3)N(COP(=O)(O)O)C(=O)C(C)(C)O4)n2)cc(OC)c1OC [Compound 4, N4-(2,2-dimethyl-4-[(dihydrogenphosphonoxy)methyl]-3-oxo-5-pyrido[1,4]oxazin-6-yl)-5-fluoro-N2-(3,4,5-trimethoxyphenyl)-2,4-pyrimidinediamine]
- inhibition of phH3 staining ([1]; 20 mg/kg VII): 53%
- inhibition of phH3 staining ([1]; 40 mg/kg VII): 71%
- stability in rat plasma (hydrolysis to Compound III) [2]: metabolize to the active drug Compound III; also recorded: unstable
- Constitutive phosphorylation of Flt-3 in tumors [3]: reduced
- STATS and ERK1/2 phosphorylation in tumor sections [4]: reduced
- conversion to drug Compound III in intestinal and hepatic microsomes ([5]; microsomes from a different source): metabolize to the active drug Compound III; also recorded: conversion of Compound 4 to Compound III was observed
- conversion to drug Compound III in microsomal preparations ([5]; preparations obtained from Xenotech): failed to convert
